Data: US5686486A, “4-hydroxy-benzopyran-2-ones and 4-hydroxy-cycloalkyl[b]pyran-2-ones useful to treat retroviral infections” (priority 1995, dated 1997)
Read-outs that look alike come from different tables or passages of the source.

Legend:
HIV-1 protease [1] = molecular target: T1, HIV-1 protease (Human immunodeficiency virus type 1 group M subtype B, UniProt P04585); experiment: biochemical; details: for inhibition at 0.123 µM: read-out: HIV-1 Protease % Inhib, dose 0.123 uM; for inhibition at 0.37 µM: read-out: HIV-1 Protease % Inhib, dose 0.370 uM; for inhibition at 1.1 µM: read-out: HIV-1 Protease % Inhib, dose 1.100 uM; for inhibition at 3.3 µM: read-out: HIV-1 Protease % Inhib, dose 3.300 uM; for inhibition at 10 µM: read-out: HIV-1 Protease % Inhib, dose 10.000 uM; for inhibition at 30 µM: read-out: HIV-1 Protease % Inhib, dose 30.000 uM; for inhibition at 100 µM: read-out: HIV-1 Protease % Inhib, dose 100.000 uM
Method in brief: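 Percent inhibition derived from fluorescent cleavage product separated by filtration after streptavidin-bead capture of intact biotin/FITC substrate. Reaction: enzyme (10 μl, 0.1 μM stock) with substrate (20 μl, 0.2 μM stock) and compound, 1 h at room temperature in dark, pH 5.5 acetate buffer with 1.0 M NaCl and 0.05% NP-40.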

HIV-1 protease [2] = molecular target: T1, HIV-1 protease; experiment: biochemical
Method: Determination of Ki values utilizes the same materials and equipment employed for percent inhibition studies. Two-fold serial dilutions are made for a given inhibitor from 2, 3 or 4 starting concentrations with a total of 24, 36 or 48 individual inhibitor concentrations. These dilutions are performed utilizing the BioMek robotics system. The assay consists of 10 μL of 40 nM HIV-1 protease, 10 μL of the various inhibitor concentrations, and 20 μL of 200 μM substrate (40 μL total). The reaction is allowed to proceed for 90 min at room temperature, terminated with 40 μL of avidin beads and processed (supra vide). An inhibitor with a known Ki is run in parallel to verify the validity of the assay. The data is processed utilizing a computer program employing a nonlinear least square analysis of the data to generate the Ki values.

Row | SMILES | inhibition at 0.123 µM (HIV-1 protease [1]) [%] | inhibition at 0.37 µM (HIV-1 protease [1]) [%] | inhibition at 1.1 µM (HIV-1 protease [1]) [%] | inhibition at 3.3 µM (HIV-1 protease [1]) [%] | inhibition at 10 µM (HIV-1 protease [1]) [%] | inhibition at 30 µM (HIV-1 protease [1]) [%] | Ki (HIV-1 protease [2]; read-out: HIV-1 FITC KI) [µM] | also measured
1 | CC(C)(C)c1ccc(S(=O)(=O)Nc2cccc(C(c3c(O)c4c(oc3=O)CCCCCC4)C3CC3)c2)cc1 (centres unmarked) [Example 265, N-[3-[Cyclopropyl(5,6,7,8,9,10-hexahydro-4hydroxy-2-oxo-2H-cycloocta[b]pyran-3-yl)methyl]phenyl]-4-(1,1-dimethylethyl)-benzenesulfonamide] | 25.3 | 54.8 | 76.9 | 86.1 | 100 | 98.3 | 0.0315 | 
2 | CCC(c1cccs1)c1c(O)c2c(oc1=O)CCCCCC2 (stereo not drawn) [Example 380, 3-(α-Ethylthien-2-ylmethyl)4-hydroxy-5,6,7,8,9,10-hexahydrocycloocta[b]pyran-2-one] |  | 21.5 | 57.2 | 82.5 | 103 | 108 | 0.0879 | 
3 | CCC(c1ccccc1)c1c(O)c2ccc(OCCOCCOCCOC)cc2oc1=O (centres unmarked) [Example 154] |  |  |  |  | 77.1 |  |  | inhibition at 1 µM (HIV-1 protease [1]; read-out: HIV-1 Protease % Inhib, dose 1.000 uM): 13.6%; inhibition at 100 µM (HIV-1 protease [1]): 96%; Ki (HIV-1 protease [2]; HIV-1 FITC KI): 0.52 µM
4 | CCC1CCCCCc2c1oc(=O)c(C(c1ccccc1)C1CC1)c2O (centres unmarked) [Example 127, 3-(Cyclopropyl-phenyl-methyl)-10-ethyl-4-hydroxy-5,6,7,8,9,10-hexahydro-cycloocta[b]pyran-2-one] | 52.3 | 92.5 | 112 | 115 | 117 | 111 | 0.033 | 
5 | CS(=O)(=O)Nc1cccc(C(c2c(O)c3c(oc2=O)CCCCC3)C2CC2)c1 (centres unmarked) [Example 364, N-[3-[Cyclopropyl(2,5,6,7,8,9-hexahydro-4-hydroxy-2-oxocyclohepta[b]pyran-3-yl)methyl]phenyl]-methanesulfonamide] |  | 17.2 | 53.5 | 78.7 | 100 | 90.2 | 0.118 | 
6 | CCOC(=O)Nc1cccc(C(c2c(O)c3c(oc2=O)CCCCCC3)C2CC2)c1 (centres unmarked) [Example 226, [3-[Cyclopropyl(5,6,7,8,9,10-hexahydro4-hydroxy-2-oxo-2H-cycloocta[b]pyran-3-yl)methyl]phenyl]-, ethyl ester carbamic acid] | 14.2 | 43.7 | 74.1 | 87.6 | 101 | 104 | 0.0189 | 
7 | O=c1oc2c(c(O)c1C(c1ccccc1)C1CC1)CCCCCC2CC1CO1 (centres unmarked) [Example 163, 3-(Cyclopropylphenylmethyl)-5,6,7,8,9,10-hexahydro-4-hydroxy-10-(oxiranylmethyl)-2H-cycloocta[b]pyran-2-one] | 17.7 | 56 | 84.2 | 98.6 | 107 | 105 | 0.034 | 
8 | COCC1CCCCCc2c1oc(=O)c(C(c1ccccc1)C1CC1)c2O (centres unmarked) [Example 177, 3-(Cyclopropylphenylmethyl)-5,6,7,8,9,10-hexahydro4-hydroxy-10-(methoxymethyl)-2H-cycloocta[b]pyran-2-one] |  | 16.9 | 53.9 | 88.9 | 104 | 104 | 0.055 | 
9 | CCC1CCCCc2c1oc(=O)c(C(c1ccccc1)C1CC1)c2O (centres unmarked) [Example 185, 3-(Cyclopropylphenylmethyl)-9-ethyl-6,7,8,9-tetrahydro-4-hydroxy-cyclohepta[b]pyran-2(5H)-one] | 18.7 | 40.3 | 71.5 | 92.6 | 97.6 | 91.8 | 0.022 | 
10 | CCCC(=O)Nc1cccc(C(c2c(O)c3c(oc2=O)CCCCCC3)C2CC2)c1 (centres unmarked) [Example 209, N-[3-[Cyclopropyl(5,6,7,8,9,10-hexahydro-4-hydroxy-2-oxo-2H-cycloocta[b]pyran-3-yl)methyl]phenyl]-butanamide] |  | 43.2 | 80 | 96 | 104 | 100 | 0.0241 | 
11 | CC(O)CC1CCCCCc2c1oc(=O)c(C(c1ccccc1)C1CC1)c2O (centres unmarked) [Example 162, 3-(Cyclopropylphenylmethyl)-5,6,7,8,9,10-hexahydro-4-hydroxy-10-(2-hydroxypropyl)-2H-cycloocta[b]pyran-2-one] | 14.8 | 56 | 92.2 | 99.3 | 102 | 109 | 0.04 | 
12 | CC(C)(C)C(c1ccccc1)c1c(O)c2ccccc2oc1=O (centres unmarked) [Example 152, 3-(2,2-Dimethyl-1-phenyl-propyl)-4-hydroxy-chromen-2-one] |  |  |  |  |  |  |  | inhibition at 0.41 µM (HIV-1 protease [1]; read-out: HIV-1 Protease % Inhib, dose 0.410 uM): < 10%; inhibition at 1.23 µM (HIV-1 protease [1]; read-out: HIV-1 Protease % Inhib, dose 1.230 uM): 14.2%; inhibition at 3.7 µM (HIV-1 protease [1]; read-out: HIV-1 Protease % Inhib, dose 3.700 uM): 35.5%; inhibition at 11 µM (HIV-1 protease [1]; read-out: HIV-1 Protease % Inhib, dose 11.000 uM): 73.7%; inhibition at 33 µM (HIV-1 protease [1]; read-out: HIV-1 Protease % Inhib, dose 33.000 uM): 102%; inhibition at 100 µM (HIV-1 protease [1]): 110%; Ki (HIV-1 protease [2]; HIV-1 FITC KI): 1.01 µM
13 | CCCC(c1cccc(NS(=O)(=O)c2ccc(C#N)cc2)c1)c1c(O)c2c(oc1=O)CCCCCC2 (single isomer, unassigned) [Example 437, (R or S)-Benzenesulfonamide, 4-cyano-N-[3-[1-(5,6,7,8,9,10-hexahydro-4-hydroxy-2-oxo-2H-cycloocta[b]pyran-3-yl)butyl]phenyl]-] | 68.1 | 87.1 | 103 | 108 | 112 | 105 | 0.0023 | 
14 | COCCC1CCCCc2c1oc(=O)c(C(c1ccccc1)C1CC1)c2O (centres unmarked) [Example 194, 3-(Cyclopropylphenylmethyl)-6,7,8,9-tetrahydro4-hydroxy-9-(2-methoxyethyl)-cyclohepta[b]pyran-2(5H)-one] |  | 39.7 |  |  |  |  | 0.028 | HIV-1 Protease % Inhib (HIV-1 protease [1]; dose 1.100 uM): 81.89%; HIV-1 Protease % Inhib (HIV-1 protease [1]; dose 3.300 uM): 102.84%; HIV-1 Protease % Inhib (HIV-1 protease [1]; dose 10.000 uM): 108.17%; HIV-1 Protease % Inhib (HIV-1 protease [1]; dose 30.000 uM): 107.45%
15 | O=c1oc2c(c(O)c1C(c1cccc(NS(=O)(=O)c3cccc(NO)c3)c1)C1CC1)CCCCCC2 (centres unmarked) [Example 353 (Second Title Compound), N-[3-[Cyclopropyl(5,6,7,8,9, 10-hexahydro-4-hydroxy-2-oxo-2H-cycloocta[b]pyran-3-yl)methyl]phenyl]-3-(hydroxyamino)-benzenesulfonamide] | 61.4 | 92.7 | 103 | 110 | 113 | 107 | 0.0024 | 
16 | COc1cccc(Br)c1S(=O)(=O)Nc1cccc(C(c2c(O)c3c(oc2=O)CCCCCC3)C2CC2)c1 (centres unmarked) [Example 337, 2-Bromo-N-[3-[cyclopropyl(5,6,7,8,9,10-hexahydro-4-hydroxy-2-oxo-2H-cycloocta[b]pyran-3-yl)methyl]phenyl]-6-methoxy-benzenesulfonamide] | 10.1 | 47.9 | 93.6 | 116 | 111 | 112 | 0.0379 | 
